Source: US20260200926A1, “TREM2 MODULATORS” (Muna Therapeutics ApS, priority 2022, published 2026)

Molecular target: T1, Human TREM2 (Homo sapiens, UniProt Q9NZC2)
T1 construct: expressed in transfected cells
Experiment: Human TREM2 activity: cellular phosphorylation of Syk (AlphaLISA SureFire Ultra p-SYK) in HEK293/DAP12+TREM2 stable cell line
Format: cell-based
Conditions: for Emax: HEK293, maximal response relative to reference agonist example 1B (remaining examples), read-out: Emax; for EC50: phospho-Syk AlphaLISA signal, HEK293/DAP12+TREM2 cells, concentration giving 50% of maximal response, read-out: EC50
Method in brief: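 HEK293 cells stably co-expressing human TREM2 and DAP12 were seeded at 10,000 cells/well and used 20–24 h later. Compounds were tested at 8 concentrations (top 100 μM, 1:6 steps, 0.5% DMSO) for 30 min at 37 °C. Syk phosphorylation at Tyr525/526 was read in lysates by AlphaLISA SureFire Ultra.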

T1 sequence (Q9NZC2 19-230): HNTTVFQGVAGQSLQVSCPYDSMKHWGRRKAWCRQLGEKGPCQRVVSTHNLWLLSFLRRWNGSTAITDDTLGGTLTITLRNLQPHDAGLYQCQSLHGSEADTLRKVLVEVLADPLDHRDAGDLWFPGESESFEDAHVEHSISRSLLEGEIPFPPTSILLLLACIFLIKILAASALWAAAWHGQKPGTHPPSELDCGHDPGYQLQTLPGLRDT
T1 sequence (O43914 22-113 partner): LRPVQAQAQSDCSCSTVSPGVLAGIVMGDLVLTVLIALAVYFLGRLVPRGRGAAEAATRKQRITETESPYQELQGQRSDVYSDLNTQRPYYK

Row | Emax [%] | EC50 [nM] | Structure (SMILES)
1 | 75 to 110 | 1 to 10 | Cc1nc2c(-c3ccc(Cl)cc3F)nc(N3C[C@@H](c4cnn(C)c4)OC4(CCC4)C3)cc2c(=O)n1C (single isomer, unassigned) [Example 151A]
2 | < 75 | 100 to 1000 | Cc1nc2c(-c3ccc(Cl)cc3F)nc(N3C[C@H](c4cnn(C)c4)OC4(CCC4)C3)cc2c(=O)n1C (single isomer, unassigned) [Example 151B]
3 | 75 to 110 | 100 to 1000 | Cc1nc2c(-c3cc(F)c(F)cc3F)nc(N3C[C@@H](c4cnn(C)c4)OC4(CCC4)C3)cc2c(=O)n1C (single isomer, unassigned) [Example 152A]
4 | < 75 | > 1000 | Cc1nc2c(-c3cc(F)c(F)cc3F)nc(N3C[C@H](c4cnn(C)c4)OC4(CCC4)C3)cc2c(=O)n1C (single isomer, unassigned) [Example 152B]
5 | > 110 | 1 to 10 | Cc1nc2c(-c3ccc(C(F)(F)F)cc3F)nc([C@@H]3CCO[C@H](c4cnn(C5CC5)c4)C3)cc2c(=O)n1C (single isomer, unassigned) [Example 153A]
6 | < 75 | 100 to 1000 | Cc1nc2c(-c3ccc(C(F)(F)F)cc3F)nc([C@H]3CCO[C@@H](c4cnn(C5CC5)c4)C3)cc2c(=O)n1C (single isomer, unassigned) [Example 153B]
7 | 75 to 110 | < 1 | Cc1cc([C@@H]2CN(c3nc(-c4ccc(F)cc4F)c4nc(C(F)(F)F)n(C)c(=O)c4n3)CCO2)ccn1 (single isomer, unassigned) [Example 154A]
8 | 75 to 110 | 10 to 100 | Cc1cc([C@H]2CN(c3nc(-c4ccc(F)cc4F)c4nc(C(F)(F)F)n(C)c(=O)c4n3)CCO2)ccn1 (single isomer, unassigned) [Example 154B]
9 | 75 to 110 | < 1 | Cc1cc([C@@H]2CN(c3nc(-c4cc(F)c(F)cc4F)c4nc(C(F)(F)F)n(C)c(=O)c4n3)CCO2)ccn1 (single isomer, unassigned) [Example 155A]
10 | 75 to 110 | 10 to 100 | Cc1cc([C@H]2CN(c3nc(-c4cc(F)c(F)cc4F)c4nc(C(F)(F)F)n(C)c(=O)c4n3)CCO2)ccn1 (single isomer, unassigned) [Example 155B]
11 | 75 to 110 | 1 to 10 | Cc1nc2c(-c3ccc(F)cc3F)nc(N3C[C@@H](c4cnn(C)c4)OC(F)(F)C3)nc2c(=O)n1C (single isomer, unassigned) [Example 156A]
12 | 75 to 110 | 10 to 100 | Cc1nc2c(-c3ccc(F)cc3F)nc(N3C[C@H](c4cnn(C)c4)OC(F)(F)C3)nc2c(=O)n1C (single isomer, unassigned) [Example 156B]
13 | 75 to 110 | 1 to 10 | Cc1cc([C@@H]2CN(c3cc4c(=O)n(C)c(C)nc4c(-c4ccc(F)cc4F)n3)CC(C)(C)O2)ccn1 (single isomer, unassigned) [Example 159A]
14 | < 75 | 100 to 1000 | Cc1cc([C@H]2CN(c3cc4c(=O)n(C)c(C)nc4c(-c4ccc(F)cc4F)n3)CC(C)(C)O2)ccn1 (single isomer, unassigned) [Example 159B]
15 | 75 to 110 | 1 to 10 | Cc1cc([C@@H]2CN(c3cc4c(=O)n(C)c(C)nc4c(-c4cc(F)c(F)cc4F)n3)CC(C)(C)O2)ccn1 (single isomer, unassigned) [Example 160A]
16 | < 75 | 100 to 1000 | Cc1cc([C@H]2CN(c3cc4c(=O)n(C)c(C)nc4c(-c4cc(F)c(F)cc4F)n3)CC(C)(C)O2)ccn1 (single isomer, unassigned) [Example 160B]
17 | < 75 | 100 to 1000 | Cc1cc([C@@H]2CN(c3cc4c(=O)n(C)c(C)nc4c(-c4ccc(C(F)(F)F)nc4)n3)CC(C)(C)O2)ccn1 (single isomer, unassigned) [Example 161A]
18 | 75 to 110 | 1 to 10 | Cc1cc([C@H]2CN(c3cc4c(=O)n(C)c(C)nc4c(-c4ccc(C(F)(F)F)nc4)n3)CC(C)(C)O2)ccn1 (single isomer, unassigned) [Example 161B]
19 | 75 to 110 | 1 to 10 | Cn1cc([C@@H]2CN(c3nc(-c4cc(F)c(F)cc4F)c4nc(C(F)(F)F)n(C)c(=O)c4n3)CC3(CC3)O2)cn1 (single isomer, unassigned) [Example 162A]
20 | < 75 | 10 to 100 | Cn1cc([C@H]2CN(c3nc(-c4cc(F)c(F)cc4F)c4nc(C(F)(F)F)n(C)c(=O)c4n3)CC3(CC3)O2)cn1 (single isomer, unassigned) [Example 162B]
21 | < 75 | 100 to 1000 | Cc1cc([C@@H]2CN(c3cc4c(=O)n(C)c(C)nc4c(-c4ccc(C(F)(F)F)cc4F)n3)CC(C)(C)O2)ccn1 (single isomer, unassigned) [Example 163A]
22 | 75 to 110 | 1 to 10 | Cc1cc([C@H]2CN(c3cc4c(=O)n(C)c(C)nc4c(-c4ccc(C(F)(F)F)cc4F)n3)CC(C)(C)O2)ccn1 (single isomer, unassigned) [Example 163B]

Row | Emax [%] | EC50 [nM] | Structure (SMILES)
23 | 75 to 110 | 10 to 100 | Cc1cc([C@@H]2CN(c3nc(-c4ccc(C(F)(F)F)nc4)c4nc(C)n(C)c(=O)c4n3)CC(C)(C)O2)ccn1 (single isomer, unassigned) [Example 164A]
24 | < 75 | 1 to 10 | Cc1cc([C@H]2CN(c3nc(-c4ccc(C(F)(F)F)nc4)c4nc(C)n(C)c(=O)c4n3)CC(C)(C)O2)ccn1 (single isomer, unassigned) [Example 164B]
25 | 75 to 110 | 1 to 10 | Cn1cc([C@@H]2CN(c3nc(-c4ccc(F)cc4F)c4nc(C(F)(F)F)n(C)c(=O)c4n3)CC3(CC3)O2)cn1 (single isomer, unassigned) [Example 165A]
26 | 75 to 110 | 10 to 100 | Cn1cc([C@H]2CN(c3nc(-c4ccc(F)cc4F)c4nc(C(F)(F)F)n(C)c(=O)c4n3)CC3(CC3)O2)cn1 (single isomer, unassigned) [Example 165B]
27 | 75 to 110 | 1 to 10 | Cc1nc2c(-c3ccc(F)cc3F)nc(N3C[C@@H](c4cnn(C)c4)OC(F)(F)C3)cc2c(=O)n1C (single isomer, unassigned) [Example 166A]
28 | < 75 | 10 to 100 | Cc1nc2c(-c3ccc(F)cc3F)nc(N3C[C@H](c4cnn(C)c4)OC(F)(F)C3)cc2c(=O)n1C (single isomer, unassigned) [Example 166B]
29 | < 75 | 100 to 1000 | Cc1cc([C@@H]2C[C@H](c3cc4c(=O)n(C)c(C)nc4c(-c4ccc(C(F)(F)F)cc4F)n3)CCO2)ccn1 (single isomer, unassigned) [Example 168A]
30 | 75 to 110 | 1 to 10 | Cc1cc([C@H]2C[C@@H](c3cc4c(=O)n(C)c(C)nc4c(-c4ccc(C(F)(F)F)cc4F)n3)CCO2)ccn1 (single isomer, unassigned) [Example 168B]
31 | 75 to 110 | < 1 | Cc1cc([C@@H]2CN(c3nc(-c4ccc(F)cc4F)c4nc(C)n(C)c(=O)c4n3)CC(F)(F)O2)ccn1 (single isomer, unassigned) [Example 169A]
32 | 75 to 110 | 10 to 100 | Cc1cc([C@H]2CN(c3nc(-c4ccc(F)cc4F)c4nc(C)n(C)c(=O)c4n3)CC(F)(F)O2)ccn1 (single isomer, unassigned) [Example 169B]
33 | < 75 | 100 to 1000 | Cc1cc([C@@H]2CN(c3nc(-c4ccc(F)cc4F)c4nc(C)n(C)c(=O)c4n3)CC(C)(C)O2)ccn1 (single isomer, unassigned) [Example 170A]
34 | 75 to 110 | 1 to 10 | Cc1cc([C@H]2CN(c3nc(-c4ccc(F)cc4F)c4nc(C)n(C)c(=O)c4n3)CC(C)(C)O2)ccn1 (single isomer, unassigned) [Example 170B]
35 | > 110 | 1 to 10 | Cc1cc([C@@H]2CN(c3cc4c(=O)n(C)c(C)nc4c(-c4ccc(F)cc4F)n3)CC(F)(F)O2)ccn1 (single isomer, unassigned) [Example 171A]
36 | < 75 | 100 to 1000 | Cc1cc([C@H]2CN(c3cc4c(=O)n(C)c(C)nc4c(-c4ccc(F)cc4F)n3)CC(F)(F)O2)ccn1 (single isomer, unassigned) [Example 171B]
37 | < 75 | 100 to 1000 | Cc1cc([C@@H]2CN(c3cc4c(=O)n(C)c(C)nc4c(-c4ccc(Cl)cc4F)n3)CC(C)(C)O2)ccn1 (single isomer, unassigned) [Example 172A]
38 | 75 to 110 | 1 to 10 | Cc1cc([C@H]2CN(c3cc4c(=O)n(C)c(C)nc4c(-c4ccc(Cl)cc4F)n3)CC(C)(C)O2)ccn1 (single isomer, unassigned) [Example 172B]
39 | < 75 | 10 to 100 | Cc1nc2c(-c3ccc(Cl)cc3F)nc(N3C[C@@H](c4cnn(C)c4)OC4(CC4)C3)c(F)c2c(=O)n1C (single isomer, unassigned) [Example 173A]
40 | < 75 | 10 to 100 | Cc1nc2c(-c3ccc(Cl)cc3F)nc(N3C[C@H](c4cnn(C)c4)OC4(CC4)C3)c(F)c2c(=O)n1C (single isomer, unassigned) [Example 173B]
41 | < 75 | 10 to 100 | Cc1cc([C@@H]2CN(c3nc(-c4ccc(F)cc4F)c4nc(C(F)(F)F)n(C)c(=O)c4c3F)CCO2)ccn1 (single isomer, unassigned) [Example 174A]
42 | < 75 | 100 to 1000 | Cc1cc([C@H]2CN(c3nc(-c4ccc(F)cc4F)c4nc(C(F)(F)F)n(C)c(=O)c4c3F)CCO2)ccn1 (single isomer, unassigned) [Example 174B]
43 | 75 to 110 | 1 to 10 | Cc1cc([C@@H]2CN(c3nc(-c4ccc(F)cc4F)c4nc(C)n(C)c(=O)c4n3)C[C@H](C)O2)ccn1 (single isomer, unassigned) [Example 175A]
44 | 75 to 110 | 10 to 100 | Cc1cc([C@H]2CN(c3nc(-c4ccc(F)cc4F)c4nc(C)n(C)c(=O)c4n3)C[C@@H](C)O2)ccn1 (single isomer, unassigned) [Example 175B]
